The results in this text go back to patent US7851474B2, “Dipiperazinyl ketones and related analogues” (Neurogen Corporation, priority 2005, dated 2010).

Molecules are shown by their SMILES. A value given as a limit tells only on which side of the number the result lay.

The target of the first test is T1, chimeric human H3 receptor (Homo sapiens, UniProt Q9Y5N1, E19D).
T1 construct: made in house; host or cells: Sf9 insect cells (baculovirus infection); P2 membrane preparation
T1 sequence (Q9Y5N1 with tags, fused parts or gaps E19D): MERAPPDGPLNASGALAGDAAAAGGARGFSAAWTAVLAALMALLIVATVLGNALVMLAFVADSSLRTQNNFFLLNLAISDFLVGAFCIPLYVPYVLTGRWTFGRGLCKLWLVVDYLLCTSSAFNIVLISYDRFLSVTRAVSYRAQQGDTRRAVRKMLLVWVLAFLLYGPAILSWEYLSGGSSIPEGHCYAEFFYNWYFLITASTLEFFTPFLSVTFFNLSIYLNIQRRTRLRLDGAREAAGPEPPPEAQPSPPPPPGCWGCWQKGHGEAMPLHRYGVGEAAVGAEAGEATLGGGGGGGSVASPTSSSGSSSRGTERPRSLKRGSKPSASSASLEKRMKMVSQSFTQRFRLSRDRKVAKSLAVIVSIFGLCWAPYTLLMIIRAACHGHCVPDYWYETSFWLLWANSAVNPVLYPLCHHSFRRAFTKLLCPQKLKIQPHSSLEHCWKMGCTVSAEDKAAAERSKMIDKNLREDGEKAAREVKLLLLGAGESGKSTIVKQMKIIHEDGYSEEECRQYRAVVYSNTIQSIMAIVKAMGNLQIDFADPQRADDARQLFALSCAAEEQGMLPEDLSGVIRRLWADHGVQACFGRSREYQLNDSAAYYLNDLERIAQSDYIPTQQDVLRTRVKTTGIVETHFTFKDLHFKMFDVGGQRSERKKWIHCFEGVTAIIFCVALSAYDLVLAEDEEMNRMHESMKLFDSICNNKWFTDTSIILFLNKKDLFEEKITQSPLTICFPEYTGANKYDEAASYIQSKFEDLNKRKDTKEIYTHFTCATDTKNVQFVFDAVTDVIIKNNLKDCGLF
As to the kind of experiment: Chimeric human H3 receptor screening GTP binding assay (inhibition of histamine-stimulated GTP-gamma35S binding, Example 8). Format: biochemical. Conditions: 1 h; "+" in Ki of Table II; assay of Example 8; read-out: percent inhibition of agonist-induced GTP-gammaS binding to H3. The essentials: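 Data are percent inhibition of the 1 μM histamine-stimulated GTP-gamma35S (125 pM) binding, after non-specific binding (10 uM GTP-gammaS) is subtracted. Test compound at 4 μM. Incubation was 60 min at room temperature with Sf9 membranes bearing receptor plus G-protein subunits, buffer pH 7.4 with 10 μM GDP, and filtration read-out.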
Turning to `COc1ccc(CC(=O)N2CCN(CC(=O)N3CCN(C4CCC4)CC3)CC2)cc1` [Compound 563, 1-cyclobutyl-4-({4-[(4-methoxyphenyl)acetyl]piperazin-1-yl}acetyl)piperazine], the inhibition at 4 µM was more than 90%.
As for `O=C(Cc1cccc(Oc2ccccc2)c1)N1CCN(CC(=O)N2CCN(C3CCC3)CC2)CC1` [Compound 556, 1-cyclobutyl-4-({4-[(3-phenoxyphenyl)acetyl]piperazin-1-yl}acetyl)piperazine], the inhibition at 4 µM was more than 90%.
Same read-out and setting: the value for `CCC(C)N1CCN(C(=O)CN2CCN(C(C)=O)CC2)CC1` (stereo not drawn) [Compound 486, 1-acetyl-4-[2-(4-sec-butylpiperazin-1-yl)-2-oxoethyl]piperazine] was more than 90%; that for `O=C(COc1ccc(Cl)cc1Cl)N1CCN(CC(=O)N2CCN(C3CCC3)CC2)CC1` [Compound 504, 1-cyclobutyl-4-({4-[(2,4-dichlorophenoxy)acetyl]piperazin-1-yl}acetyl)piperazine] was more than 90%.
Still for that read-out and setting: under `COc1cccc(CC(=O)N2CCN(CC(=O)N3CCN(C4CCC4)CC3)CC2)c1OC` [Compound 502, 1-cyclobutyl-4-({4-[(2,3-dimethoxyphenyl)acetyl]piperazin-1-yl}acetyl)piperazine] stands more than 90%.
Still for that read-out and setting: under `CC(C)(C)c1ccc(Oc2ncccc2C(=O)N2CCN(CC(=O)N3CCN(C4CCC4)CC3)CC2)cc1` [Compound 474, 1-{[2-(4-tert-butylphenoxy)pyridin-3-yl]carbonyl}-4-[2-(4-cyclobutylpiperazin-1-yl)-2-oxoethyl]piperazine] stands more than 90%; under `CCn1nc(C)cc1C(=O)N1CCN(CC(=O)N2CCN(C3CCC3)CC2)CC1` [Compound 499, 1-cyclobutyl-4-({4-[(1-ethyl-3-methyl-1H-pyrazol-5-yl)carbonyl]piperazin-1-yl}acetyl)piperazine], more than 90%.
As for `O=C(Cc1ccc(Cl)c(Cl)c1)N1CCN(CC(=O)N2CCN(C3CCC3)CC2)CC1` [Compound 546, 1-cyclobutyl-4-({4-[(3,4-dichlorophenyl)acetyl]piperazin-1-yl}acetyl)piperazine], the inhibition at 4 µM is more than 90%.
Take `O=C(/C=C/c1ccc(Cl)c(Cl)c1)N1CCN(CC(=O)N2CCN(C3CCC3)CC2)CC1` [Compound 527, 1-cyclobutyl-4-({4-[(2E)-3-(3,4-dichlorophenyl)prop-2-enoyl]piperazin-1-yl}acetyl)piperazine]: the inhibition at 4 µM was more than 90%.
The same measure, in the same setting: under `Cc1oc(-c2ccc(Cl)cc2)cc1C(=O)N1CCN(CC(=O)N2CCN(C3CCC3)CC2)CC1` [Compound 470, 1-[5-(4-chlorophenyl)-2-methyl-3-furoyl]-4-[2-(4-cyclobutylpiperazin-1-yl)-2-oxoethyl]piperazine] stands more than 90%; under `O=C(Cc1ccccc1F)N1CCN(CC(=O)N2CCN(C3CCC3)CC2)CC1` [Compound 534, 1-cyclobutyl-4-({4-[(2-fluorophenyl)acetyl]piperazin-1-yl}acetyl)piperazine], more than 90%; under `Cc1cccc(OCC(=O)N2CCN(CC(=O)N3CCN(C4CCC4)CC3)CC2)c1C` [Compound 503, 1-cyclobutyl-4-({4-[(2,3-dimethylphenoxy)acetyl]piperazin-1-yl}acetyl)piperazine], more than 90%.
Consider `O=C(/C=C/c1ccc(F)cc1)N1CCN(CC(=O)N2CCN(C3CCC3)CC2)CC1` [Compound 529, 1-cyclobutyl-4-({4-[(2E)-3-(4-fluorophenyl)prop-2-enoyl]piperazin-1-yl}acetyl)piperazine], for which the inhibition at 4 µM is more than 90%.
Turning to `COc1cc(/C=C/C(=O)N2CCN(CC(=O)N3CCN(C4CCC4)CC3)CC2)ccc1OCc1ccccc1` [Compound 471, 1-{(2E)-3-[4-(benzyloxy)-3-methoxyphenyl]prop-2-enoyl}-4-[2-(4-cyclobutylpiperazin-1-yl)-2-oxoethyl]piperazine], the inhibition at 4 µM was more than 90%.

The same test, now with this note: 1 h; Table II "Ki", symbol "+": assay described in Example 8; read-out: percent inhibition of agonist-induced GTP-gammaS binding to H3.
For `CCCn1c(C(=O)N2CCN(CC(=O)N3CCN(C4CCC4)CC3)CC2)cc2ccccc21` [Compound 889, 2-({4-[2-(4-cyclobutylpiperazin-1-yl)-2-oxoethyl]piperazin-1-yl}carbonyl)-1-propyl-1H-indole], the inhibition at 4 µM is more than 90%.
Consider `Cc1ccc(N)c(C(=O)N2CCN(CC(=O)N3CCN(C4CCC4)CC3)CC2)c1` [Compound 893, 2-({4-[2-(4-cyclobutylpiperazin-1-yl)-2-oxoethyl]piperazin-1-yl}carbonyl)-4-methylaniline], for which the inhibition at 4 µM is more than 90%.
In the case of `Nc1ccccc1C(=O)N1CCN(CC(=O)N2CCN(C3CCC3)CC2)CC1` [Compound 890, 2-({4-[2-(4-cyclobutylpiperazin-1-yl)-2-oxoethyl]piperazin-1-yl}carbonyl)aniline], the inhibition at 4 µM is more than 90%.

Staying with this test, now noted: 1 h; Table II, "+" in the column headed Ki; assay of Example 8; read-out: percent inhibition of agonist-induced GTP-gammaS binding to H3.
Turning to `O=C(CN1CCN(C(=O)c2c(F)cccc2F)CC1)N1CCN(C2CCC2)CC1` [Compound 693, 1-cyclobutyl-4-{[4-(2,6-difluorobenzoyl)piperazin-1-yl]acetyl}piperazine], the inhibition at 4 µM was more than 90%.
On the same count and under the same terms, the value for `O=C(CN1CCN(C(=O)c2cccs2)CC1)N1CCN(C2CCC2)CC1` [Compound 723, 1-cyclobutyl-4-{[4-(2-thienylcarbonyl)piperazin-1-yl]acetyl}piperazine] was more than 90%.
The same measure, in the same setting: the value for `O=C(CN1CCN(C(=O)c2ccncc2)CC1)N1CCN(C2CCC2)CC1` [Compound 655, 1-cyclobutyl-4-[(4-isonicotinoylpiperazin-1-yl)acetyl]piperazine] was more than 90%; that for `O=C(Cc1ccc(OC(F)(F)F)cc1)N1CCN(CC(=O)N2CCN(C3CCC3)CC2)CC1` [Compound 630, 1-cyclobutyl-4-[(4-{[4-(trifluoromethoxy)phenyl]acetyl}piperazin-1-yl)acetyl]piperazine] was more than 90%.
Turning to `Cc1cccc(C(=O)N2CCN(CC(=O)N3CCN(C4CCC4)CC3)CC2)c1` [Compound 761, 1-cyclobutyl-4-{[4-(3-methylbenzoyl)piperazin-1-yl]acetyl}piperazine], the inhibition at 4 µM was more than 90%.
Still for that read-out and setting: the value for `O=C(CN1CCN(C(=O)c2cccc(F)c2)CC1)N1CCN(C2CCC2)CC1` [Compound 752, 1-cyclobutyl-4-{[4-(3-fluorobenzoyl)piperazin-1-yl]acetyl}piperazine] was more than 90%; that for `COc1ccc(OC)c(Sc2ncccc2C(=O)N2CCN(CC(=O)N3CCN(C4CCC4)CC3)CC2)c1` [Compound 659, 1-cyclobutyl-4-{[4-({2-[(2,5-dimethoxyphenyl)thio]pyridin-3-yl}carbonyl)piperazin-1-yl]acetyl}piperazine] was more than 90%.
On the same count and under the same terms, under `Cc1ccc(C(=O)N2CCN(CC(=O)N3CCN(C4CCC4)CC3)CC2)cc1C` [Compound 734, 1-cyclobutyl-4-{[4-(3,4-dimethylbenzoyl)piperazin-1-yl]acetyl}piperazine] stands more than 90%.
Consider `O=C(CN1CCN(C(=O)C(c2ccccc2)C2CCCC2)CC1)N1CCN(C2CCC2)CC1` (stereo not drawn) [Compound 613, 1-cyclobutyl-4-({4-[cyclopentyl(phenyl)acetyl]piperazin-1-yl}acetyl)piperazine], for which the inhibition at 4 µM is more than 90%.
On the same count and under the same terms, the value for `O=C(CN1CCN(C(=O)c2cc(Cl)nc(Cl)c2)CC1)N1CCN(C2CCC2)CC1` [Compound 692] was more than 90%.
With `Cc1ccc(C(=O)N2CCN(CC(=O)N3CCN(C4CCC4)CC3)CC2)c(C)c1` [Compound 679, 1-cyclobutyl-4-{[4-(2,4-dimethylbenzoyl)piperazin-1-yl]acetyl}piperazine], the inhibition at 4 µM was more than 90%.

Staying with this test, now noted: 1 h; Table II; assay of Example 8; "+" in Ki; read-out: percent inhibition of agonist-induced GTP-gammaS binding to H3.
With `O=C(CN1CCN(C(=O)c2c(-c3ccccc3)nnc3ccccc23)CC1)N1CCN(C2CCC2)CC1` [Compound 1090], the inhibition at 4 µM is more than 90%.
For the compound `CNc1ccc(C(=O)N2CCN(CC(=O)N3CCN(C4CCC4)CC3)CC2)cc1` [Compound 1088], the inhibition at 4 µM is more than 90%.

Staying with this test, now noted: 1 h; assay described in Example 8; symbol + in column headed Ki of Table II; read-out: percent inhibition of agonist-induced GTP-gammaS binding to H3.
For `COc1ccc(/C=C/C(=O)N2CCN(CC(=O)N3CCN(C4CCC4)CC3)CC2)c(Cl)c1OC` [Compound 387, 1-[(2E)-3-(2-chloro-3,4-dimethoxyphenyl)prop-2-enoyl]-4-[2-(4-cyclobutylpiperazin-1-yl)-2-oxoethyl]piperazine], the inhibition at 4 µM is more than 90%.
Same read-out and setting: the value for `O=C(/C=C/c1ccc(-c2ccccc2)cc1)N1CCN(CC(=O)N2CCN(C3CCC3)CC2)CC1` [Compound 394, 1-[(2E)-3-biphenyl-4-ylprop-2-enoyl]-4-[2-(4-cyclobutylpiperazin-1-yl)-2-oxoethyl]piperazine] was more than 90%; that for `O=C(Cc1ccc(Cl)cc1)N1CCN(CC(=O)N2CCN(C3CCC3)CC2)CC1` [Compound 407, 1-[(4-chlorophenyl)acetyl]-4-[2-(4-cyclobutylpiperazin-1-yl)-2-oxoethyl]piperazine] was more than 90%.
For `COc1cc(Cl)ccc1C(=O)N1CCN(CC(=O)N2CCN(C3CCC3)CC2)CC1` [Compound 342, 1-(4-chloro-2-methoxybenzoyl)-4-[2-(4-cyclobutylpiperazin-1-yl)-2-oxoethyl]piperazine], the inhibition at 4 µM is more than 90%.
On the same count and under the same terms, the value for `O=C(CN1CCN(C(=O)c2cccc(Cl)c2)CC1)N1CCN(C2CCC2)CC1` [Compound 299, 1-(3-chlorobenzoyl)-4-[2-(4-cyclobutylpiperazin-1-yl)-2-oxoethyl]piperazine] was more than 90%; that for `O=C(CN1CCN(C(=O)c2ccc(Cl)s2)CC1)N1CCN(C2CCC2)CC1` [Compound 414, 1-[(5-chloro-2-thienyl)carbonyl]-4-[2-(4-cyclobutylpiperazin-1-yl)-2-oxoethyl]piperazine] was more than 90%.
